The series is described as follows: Solubility in water and organic solvents. The series is classed as physicochemical.

Take `CC(=O)NC1[C@H](OCCCCCS)OC(CO)[C@H](O)[C@@H]1O[C@@H]1OC(CO)[C@H](O)[C@H](O)C1O` (stereo partly drawn) [126E-23]: the solubility in chloroform entry (chloroform) was “moderately soluble”. The solubility in methanol result (methanol (methanol and other organic solvents)) is reported as “moderately soluble”. For the same compound, for the setting “water”, the solubility in water entry was “soluble”.

The values are drawn from patent US20070275007A1, “Carbohydrate Antigen-Nanoparticle Conjugates and Uses Thereof as Antimetastatic Agents in Treating Cancer” (The Government of the United States of America, represented …, priority 2003, published 2007).
